Three compounds from patent US20120289574A1, “HYDRATE CRYSTALS” (AJINOMOTO CO., INC., priority 2008, published 2012) can be followed below.

Like-named read-outs stand apart in the source and are kept apart here.

For series [1] the following is noted: for Comparison of decomposition rates ((b)/(a)), decomposition product X (lactone) / Comparison of decomposition rates ((b)/(a)), decomposition product Y (lactam): Comp. Ex. 1 (b) relative to Example 4 (a), 120° C.; for Rate of decomposition over time into the decomposition product X (lactone) / Rate of decomposition over time into the decomposition product Y (lactam): storage 120° C., open vial, HPLC area ratio relative to monatin.
Description: A 50 mg quantity of the crystals of Example 4 and an identical quantity of the crystals of Comparative Example 1 were placed in separate 4 mL vials and stored at a temperature of 120° C. During this storage, the vials were left open. Following storage periods of 3 hours, 7 hours, and 24 hours, 2 mg of sample was removed and the rate of decomposition of the samples was determined by HPLC. Specifically, decomposition product X was a lactone compound (RT=21 minutes) and decomposition product Y was a lactam compound (RT=26 minutes). The individual area ratios (percentages) were calculated relative to the area of monatin.

Series [2] is described as follows: Water vapor adsorption/desorption test. Particulars: water vapor adsorption/desorption curve, adsorption temperature 298 K. Type of series: physicochemical. An excerpt:
A water vapor adsorption/desorption curve was plotted for the (2R,4R) monatin monosodium salt hydrate crystals (A) obtained in Example 1. The measurement conditions were as follows. The measured values are given in FIG. 5. • Device: Automatic vapor adsorption measuring device BELSORP18 made by Bel Japan Inc. • Measurement method: Volumetric gas adsorption method
• Adsorbed gas: H2O • Air thermostat temperature (K): 353 • Adsorption temperature (K): 298 • Saturation vapor pressure (kPa): 3.169 • Adsorption cross-sectional area (nm^2): 0.125 • Maximum adsorption pressure (relative pressure P/PO): desorption: 0.90; adsorption: 0.95 • Minimum adsorption pressure (relative pressure P/PO): desorption: 0.10; adsorption: 0.05 • Equilibration period: 500 s

Series [3] can be described thus: Sweetness intensity by panelists relative to 5 percent sucrose aqueous solution. Particulars: average of values provided by seven panelists relative to 5 percent sucrose aqueous solution. Type of series: in vivo. From the text:
Sweetness intensity: 2,700-fold (average of values provided by seven panelists relative to 5 percent sucrose aqueous solution)

The mark [4] stands for this setting: 24 hr, listed as Comparative Example 1.

Consider “(2R,4R) monatin monosodium salt 0.2 ethanolate [Comp. Ex. 1]”, for which the “Comparison of decomposition rates ((b)/(a)), decomposition product X (lactone)” value in series [1] (3 hr) was 30-fold; in series [1] (7 hr) it was 21-fold; in series [1] (24 hr), 27-fold; in series [1] (setting [4]), 27 fold. Also, the “Comparison of decomposition rates ((b)/(a)), decomposition product Y (lactam)” value is recorded as 19-fold in series [1] (3 hr), 17-fold in series [1] (7 hr), 20-fold in series [1] (24 hr) and 20 fold in series [1] (setting [4]). For the same compound, the “Rate of decomposition over time into the decomposition product X (lactone)” value in series [1] (0 hr) came out at 0%; in series [1] (3 hr) it was 3.38%; in series [1] (7 hr), 4.64%; in series [1] (24 hr), 6.67%. The “Rate of decomposition over time into the decomposition product Y (lactam)” value in series [1] (0 hr) is listed as 0%; in series [1] (3 hr), 2.08%; in series [1] (7 hr), 3.63%; in series [1] (24 hr), 7.46%.
In the case of `NC(CC(O)(Cc1c[nH]c2ccccc12)C(=O)O)C(=O)[O-].[Na+]` [Example 1, (2R,4R) Monatin Monosodium Salt Hydrate Crystals (A)], in series [2], the Most stable hydrate entry was “trihydrate”.
Take `N[C@H](C[C@](O)(Cc1c[nH]c2ccccc12)C(=O)O)C(=O)[O-].O.[Na+]` [Example 4, (2R,4R) Monatin Monosodium Salt Monohydrate Crystals (B)]: the “Rate of decomposition over time into the decomposition product X (lactone)” value in series [1] (0 hr) came to 0%; in series [1] (3 hr), 0.11%; in series [1] (7 hr), 0.23%; in series [1] (24 hr) it was 0.24%. Also, the “Rate of decomposition over time into the decomposition product Y (lactam)” value is 0% in series [1] (0 hr), 0.11% in series [1] (3 hr), 0.21% in series [1] (7 hr) and 0.38% in series [1] (24 hr). The Sweetness intensity in series [3] is given as 2,700 fold.
